Assay results as given in PubChem BioAssay AID330 (DTP/NCI, 2004).
Several values for one entry are separate records, joined by “and”; a condition that tells them apart may be missing. Identical values can stand only once. Toxic doses and inconclusive results are not listed.

Test system: P388 leukemia ip, CD2F1 mice, survival T/C
Assay: NCI In Vivo Anticancer Drug Screen. Data for tumor model P388 Leukemia (intraperitoneal) in CD2F1 (CDF1) mice
Conditions: endpoint: median survival time, higher = longer survival
Outline: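 Mice carrying the transplanted tumor received test compound or vehicle. Survival was recorded in each group, and the value is the treated-group measurement divided by that of the vehicle-treated control group.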

[1] = dose: 60.0 mg/kg/injection, schedule: Q01DX005 (ip), vehicle: Klucel (hydroxypropylcellulose) (HPC)
[2] = dose: 120.0 mg/kg/injection, schedule: Q01DX005 (ip), vehicle: Klucel (hydroxypropylcellulose) (HPC)
[3] = dose: 50.0 mg/kg/injection, schedule: Q01DX005 (ip), vehicle: Klucel (hydroxypropylcellulose) (HPC)
[4] = dose: 100.0 mg/kg/injection, schedule: Q01DX005 (ip), vehicle: Klucel (hydroxypropylcellulose) (HPC)
[5] = dose: 200.0 mg/kg/injection, schedule: Q01DX005 (ip), vehicle: Klucel (hydroxypropylcellulose) (HPC)
[6] = dose: 100.0 mg/kg/injection, schedule: Q01DX005 (ip), vehicle: saline with Tween-80
[7] = dose: 200.0 mg/kg/injection, schedule: Q01DX005 (ip), vehicle: saline with Tween-80
[8] = dose: 25.0 mg/kg/injection, schedule: Q01DX009 (ip), vehicle: Klucel (hydroxypropylcellulose) (HPC)
[9] = dose: 50.0 mg/kg/injection, schedule: Q01DX009 (ip), vehicle: Klucel (hydroxypropylcellulose) (HPC)
[10] = dose: 100.0 mg/kg/injection, schedule: Q01DX009 (ip), vehicle: Klucel (hydroxypropylcellulose) (HPC)
[11] = dose: 200.0 mg/kg/injection, schedule: Q01DX001 (ip), vehicle: saline with Tween-80
[12] = dose: 400.0 mg/kg/injection, schedule: Q01DX005 (ip), vehicle: saline with Tween-80
[13] = dose: 12.5 mg/kg/injection, schedule: Q01DX009 (ip), vehicle: Klucel (hydroxypropylcellulose) (HPC)
[14] = dose: 50.0 mg/kg/injection, schedule: Q01DX009 (ip), vehicle: other
[15] = dose: 100.0 mg/kg/injection, schedule: Q01DX009 (ip), vehicle: other

CCNCc1cc(Nc2nc(NC3CCC(N(C)C)CC3)c3ccccc3n2)ccc1OC (centres undefined)
T/C (dose: 5.0 mg/kg/injection, schedule: Q01DX009 (ip), vehicle: saline sonified): 100 % of control | T/C (dose: 10.0 mg/kg/injection, schedule: Q01DX009 (ip), vehicle: saline sonified): 109 % of control | T/C (dose: 20.0 mg/kg/injection, schedule: Q01DX009 (ip), vehicle: saline sonified): 113 % of control

COc1cccc(C2c3cc4c(cc3OC(C)(N3CCCC3)C2C)OCO4)c1OC (centres undefined)
T/C [1]: 99 % of control | T/C [2]: 88 % of control

O=C1OC(c2ccccc2)=N/C1=C/c1cccn(-c2ccccc2)c1=S
T/C [3]: 94 % of control | T/C [4]: 87 % of control | T/C [5]: 86 % of control

C=C(C)C1Oc2ccc(C(C)=O)cc2C1OC(=O)/C(C)=C\C (centres undefined)
T/C (dose: 22.5 mg/kg/injection, schedule: Q01DX009 (ip), vehicle: other): 107 % of control | T/C (dose: 45.0 mg/kg/injection, schedule: Q01DX009 (ip), vehicle: other): 111 % of control | T/C (dose: 90.0 mg/kg/injection, schedule: Q01DX009 (ip), vehicle: other): 107 % of control | T/C (dose: 180.0 mg/kg/injection, schedule: Q01DX009 (ip), vehicle: other): 107 % of control

Cc1ccc2ccc3ccc(C)nc3c2n1.O=[N+]([O-])O.O=[N+]([O-])O.[Cu]
T/C (dose: 6.25 mg/kg/injection, schedule: Q04DX002 (ip), vehicle: saline): 109 % of control | T/C (dose: 12.5 mg/kg/injection, schedule: Q04DX002 (ip), vehicle: saline): 113 % of control

CCN(CC)C(=S)n1nc(C)c(N=Nc2cccc(Cl)c2Cl)c1C
T/C (dose: 6.25 mg/kg/injection, schedule: Q01DX005 (ip), vehicle: saline with Tween-80): 103 % of control | T/C (dose: 12.5 mg/kg/injection, schedule: Q01DX005 (ip), vehicle: saline with Tween-80): 97 % of control | T/C (dose: 25.0 mg/kg/injection, schedule: Q01DX005 (ip), vehicle: saline with Tween-80): 93 % of control | T/C [6]: 91 % of control | T/C [7]: 94 % of control

CCCCN=Cc1c(O)c(O)c(C(C)C)c2cc(C)c(-c3c(C)cc4c(C(C)C)c(O)c(O)c(C=NCCCC)c4c3O)c(O)c12
T/C [3]: 99 % of control | T/C [4]: 107 % of control | T/C [5]: 114 % of control

O=C1c2ccccc2CCCC12OC2c1cccnc1 (centres undefined)
T/C [8]: 100 % of control | T/C [9]: 100 % of control | T/C [10]: 104 % of control

O=S1(=O)O[C@H]2CCCC[C@H]2O1
T/C (dose: 1.75 mg/kg/injection, schedule: Q01DX009 (ip), vehicle: Klucel (hydroxypropylcellulose) (HPC)): 100 % of control | T/C (dose: 3.5 mg/kg/injection, schedule: Q01DX009 (ip), vehicle: Klucel (hydroxypropylcellulose) (HPC)): 98 % of control | T/C (dose: 7.0 mg/kg/injection, schedule: Q01DX009 (ip), vehicle: Klucel (hydroxypropylcellulose) (HPC)): 101 % of control | T/C (dose: 14.0 mg/kg/injection, schedule: Q01DX009 (ip), vehicle: Klucel (hydroxypropylcellulose) (HPC)): 98 % of control

O=C(Cn1c(=O)cc(Nc2ccccc2)c2ccccc21)Nc1ccccc1
T/C (dose: 100.0 mg/kg/injection, schedule: Q01DX001 (ip), vehicle: saline with Tween-80): 94 % of control | T/C [11]: 94 % of control | T/C (dose: 400.0 mg/kg/injection, schedule: Q01DX001 (ip), vehicle: saline with Tween-80): 94 % of control

CSc1nc(N)c2cnn(C3CCCO3)c2n1 (centres undefined)
T/C [6]: 102 % of control | T/C [7]: 94 % of control | T/C [12]: 97 % of control

CCn1c(=O)c2[nH]c(Br)nc2n(CC)c1=O
T/C [13]: 124 % of control | T/C (dose: 16.0 mg/kg/injection, schedule: Q01DX009 (ip), vehicle: Klucel (hydroxypropylcellulose) (HPC)): 106 % of control | T/C [8]: 103 % of control and 97 % of control | T/C (dose: 32.0 mg/kg/injection, schedule: Q01DX009 (ip), vehicle: Klucel (hydroxypropylcellulose) (HPC)): 104 % of control | T/C [9]: 105 % of control and 95 % of control | T/C (dose: 64.0 mg/kg/injection, schedule: Q01DX009 (ip), vehicle: Klucel (hydroxypropylcellulose) (HPC)): 114 % of control | T/C [10]: 98 % of control and 103 % of control

Cn1c(C(=O)NN)cc2cc(OCc3ccccc3)ccc21
T/C [3]: 97 % of control | T/C [4]: 100 % of control | T/C [5]: 98 % of control

CC(C)(C)OC(=O)NC(Cc1ccc(O)cc1)C(=O)ON1C(=O)CCC1=O (centres undefined)
T/C [3]: 100 % of control | T/C [4]: 106 % of control | T/C [5]: 108 % of control

CC(=O)c1c(N)n(C)c(=O)n(C)c1=O
T/C (dose: 1.56 mg/kg/injection, schedule: Q01DX009 (ip), vehicle: saline with Tween-80): 101 % of control | T/C (dose: 3.13 mg/kg/injection, schedule: Q01DX009 (ip), vehicle: saline with Tween-80): 100 % of control | T/C (dose: 6.25 mg/kg/injection, schedule: Q01DX009 (ip), vehicle: saline with Tween-80): 100 % of control and 95 % of control

O=C(O)CCC12CCCCC1=NC1(CCCCC1)NC2=O (centres undefined)
T/C [1]: 104 % of control | T/C (dose: 60.0 mg/kg/injection, schedule: Q02DX002 (ip), vehicle: Klucel (hydroxypropylcellulose) (HPC)): 102 % of control | T/C [2]: 100 % of control | T/C (dose: 120.0 mg/kg/injection, schedule: Q02DX002 (ip), vehicle: Klucel (hydroxypropylcellulose) (HPC)): 97 % of control | T/C (dose: 240.0 mg/kg/injection, schedule: Q01DX005 (ip), vehicle: Klucel (hydroxypropylcellulose) (HPC)): 100 % of control | T/C (dose: 240.0 mg/kg/injection, schedule: Q02DX002 (ip), vehicle: Klucel (hydroxypropylcellulose) (HPC)): 103 % of control

CC(=O)c1ccc2c(c1)c1c(C)c3c[n+](C)ccc3c(C)c1n2C
T/C [11]: 115 % of control

Cc1cc(C(=O)O)c(C)c(S(=O)(=O)O)c1
T/C (dose: 12.5 mg/kg/injection, schedule: Q01DX009 (ip), vehicle: water): 102 % of control | T/C (dose: 25.0 mg/kg/injection, schedule: Q01DX009 (ip), vehicle: water): 97 % of control | T/C (dose: 50.0 mg/kg/injection, schedule: Q01DX009 (ip), vehicle: water): 92 % of control | T/C (dose: 100.0 mg/kg/injection, schedule: Q01DX009 (ip), vehicle: water): 102 % of control | T/C (dose: 200.0 mg/kg/injection, schedule: Q01DX009 (ip), vehicle: water): 99 % of control

CCCCC(NC(=O)c1ccccc1)C(=O)O (centres undefined)
T/C (dose: 50.0 mg/kg/injection, schedule: Q01DX009 (ip), vehicle: saline with Tween-80): 92 % of control | T/C (dose: 100.0 mg/kg/injection, schedule: Q01DX009 (ip), vehicle: saline with Tween-80): 100 % of control | T/C (dose: 200.0 mg/kg/injection, schedule: Q01DX009 (ip), vehicle: saline with Tween-80): 98 % of control

O=C(Nc1c[nH]c(=O)[nH]c1=O)C(Cl)Cl
T/C (dose: 3.12 mg/kg/injection, schedule: Q01DX009 (ip), vehicle: saline): 93 % of control | T/C (dose: 6.25 mg/kg/injection, schedule: Q01DX009 (ip), vehicle: saline): 97 % of control | T/C (dose: 12.5 mg/kg/injection, schedule: Q01DX009 (ip), vehicle: saline): 101 % of control | T/C (dose: 25.0 mg/kg/injection, schedule: Q01DX009 (ip), vehicle: saline): 100 % of control

CC1(C)CCC2=C(O1)c1ccccc1C(=O)C2=O
T/C [13]: 96 % of control | T/C [8]: 105 % of control and 94 % of control | T/C [9]: 114 % of control and 96 % of control | T/C [10]: 115 % of control

O=C(O)/C=N/NS(=O)(=O)c1ccc(Cl)cc1
T/C (dose: 6.25 mg/kg/injection, schedule: Q01DX009 (ip), vehicle: other): 101 % of control | T/C (dose: 12.5 mg/kg/injection, schedule: Q01DX009 (ip), vehicle: other): 122 % of control | T/C [14]: 159 % of control | T/C [15]: 99 % of control

O=C(O)c1cnc2cc(C(F)(F)F)ccc2c1Nc1ccc2c(c1)OCO2
T/C (dose: 60.0 mg/kg/injection, schedule: Q01DX005 (ip), vehicle: Klucel + Tween-80): 103 % of control | T/C (dose: 120.0 mg/kg/injection, schedule: Q01DX005 (ip), vehicle: Klucel + Tween-80): 98 % of control | T/C (dose: 240.0 mg/kg/injection, schedule: Q01DX005 (ip), vehicle: Klucel + Tween-80): 97 % of control

CCC(=O)N/C(N)=N\C(N)=O
T/C (dose: 50.0 mg/kg/injection, schedule: Q01DX005 (ip), vehicle: saline): 95 % of control | T/C (dose: 100.0 mg/kg/injection, schedule: Q01DX005 (ip), vehicle: saline): 98 % of control

CN(O)C(=O)C(C)(C)C
T/C [6]: 99 % of control | T/C [7]: 103 % of control | T/C [12]: 103 % of control

CC1=C(C#N)C(C)(CCl)C(C#N)=C(C)N1C
T/C (dose: 25.0 mg/kg/injection, schedule: Q01DX009 (ip), vehicle: other): 96 % of control | T/C [14]: 115 % of control | T/C [15]: 103 % of control
